Data: patent publication US9694016B2 (Novartis AG, priority 2013, dated 2017)
pIC50: −log10 of the molar value. Like-named read-outs stand apart in the source and are kept apart here.

Biological target: b-Raf (V600E) (Homo sapiens (Human), UniProt P15056, V600E)
Settings: read-out: b-Raf IC-50, AlphaScreen
[1] = 60 min pre-incubation, reaction 3 hours at room temperature
[2] = 60 min pre-incubation, 3 hours reaction

b-Raf (V600E), sequence (P15056 whole entry V600E): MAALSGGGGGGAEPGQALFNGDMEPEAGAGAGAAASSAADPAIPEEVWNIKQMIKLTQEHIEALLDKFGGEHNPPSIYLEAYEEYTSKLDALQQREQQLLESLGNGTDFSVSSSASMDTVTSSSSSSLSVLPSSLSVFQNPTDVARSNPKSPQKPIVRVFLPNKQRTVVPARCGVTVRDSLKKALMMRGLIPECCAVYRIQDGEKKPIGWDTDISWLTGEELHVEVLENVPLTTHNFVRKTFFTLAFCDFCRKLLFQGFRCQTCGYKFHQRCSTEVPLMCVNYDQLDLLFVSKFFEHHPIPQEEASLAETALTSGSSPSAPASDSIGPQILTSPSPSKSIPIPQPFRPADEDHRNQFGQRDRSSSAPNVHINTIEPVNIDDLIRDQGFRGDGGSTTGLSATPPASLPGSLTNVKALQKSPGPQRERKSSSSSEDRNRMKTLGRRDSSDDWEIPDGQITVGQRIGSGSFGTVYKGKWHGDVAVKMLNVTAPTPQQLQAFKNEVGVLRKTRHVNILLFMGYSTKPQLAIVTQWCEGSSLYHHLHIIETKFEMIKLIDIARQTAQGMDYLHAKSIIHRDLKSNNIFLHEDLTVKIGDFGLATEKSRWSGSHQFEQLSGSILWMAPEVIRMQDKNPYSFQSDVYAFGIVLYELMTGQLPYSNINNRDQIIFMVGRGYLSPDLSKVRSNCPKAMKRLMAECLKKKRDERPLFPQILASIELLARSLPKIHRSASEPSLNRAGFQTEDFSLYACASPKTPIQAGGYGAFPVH

pIC50 [1]	pIC50 [2]	Structure (SMILES)	other results
7.69		Cc1ncc(NC(=O)c2ccnc(C(C)(C)C#N)c2)cc1-c1cc(N2CCOCC2)nc(N2CC(C)(O)C2)c1 [Example 1108, 2-(2-cyanopropan-2-yl)-N-(2′-(3-hydroxy-3-methylazetidin-1-yl)-2-methyl-6′-morpholino-[3,4′-bipyridin]-5-yl)isonicotinamide]	
	8.28	Cc1ccc(NC(=O)c2cnnc(C(F)(F)F)c2)cc1-c1cc(N2CCOCC2)c(=O)n(C)n1 [Example 647, N-(4-methyl-3-(1-methyl-5-morpholino-6-oxo-1,6-dihydropyridazin-3-yl)phenyl)-6-(trifluoromethyl)pyridazine-4-carboxamide]	
		CCOc1ncc(-c2cc(NC(=O)c3cnnc(C(C)(C)C#N)c3)ccc2C)cc1N1CCOCC1 [Example 284, 6-(2-cyanopropan-2-yl)-N-(3-(6-ethoxy-5-morpholinopyridin-3-yl)-4-methylphenyl)pyridazine-4-carboxamide]	pIC50 (Table 2, 3 hours reaction): 8.96
8.34		CCC(F)(F)c1cc(C(=O)Nc2cnc(C)c(-c3cc(C4COCCO4)nc(N4CCOCC4)c3)c2)ccn1 (centres unmarked) [Example 1168, N-(2′-(1,4-dioxan-2-yl)-2-methyl-6′-morpholino-[3,4′-bipyridin]-5-yl)-2-(1,1-difluoropropyl)isonicotinamide]	
		CCOc1ncc(-c2cc(NC(=O)c3cc(C(F)(F)F)c(=O)n(CC)c3)ccc2C)cc1N1CCOCC1 [Example 234, N-(3-(6-ethoxy-5-morpholinopyridin-3-yl)-4-methylphenyl)-1-ethyl-6-oxo-5-(trifluoromethyl)-1,6-dihydropyridine-3-carboxamide]	pIC50 (Table 2, 3 hours reaction): 9.00
	8.96	COCCOc1nnc(-c2cc(NC(=O)c3ccnc(C(C)(C)C#N)c3)ccc2C)cc1N1CCOCC1 [Example 601, 2-(2-cyanopropan-2-yl)-N-(3-(6-(2-methoxyethoxy)-5-morpholinopyridazin-3-yl)-4-methylphenyl)isonicotinamide]	
		Cn1cc(-c2cc(NC(=O)c3cccc(C(F)(F)F)c3)ccc2C#N)cc(N2CCOCC2)c1=O [Example 411, N-(4-cyano-3-(1-methyl-5-morpholino-6-oxo-1,6-dihydropyridin-3-yl)phenyl)-3-(trifluoromethyl)benzamide]	pIC50 (Table 2, 3 hours reaction): 5.51
		Cc1ccc(NC(=O)c2ccnc(S(C)(=O)=O)c2)cc1-c1cc(N2CCOCC2)c(=O)n(C)c1 [Example 184, N-(4-methyl-3-(1-methyl-5-morpholino-6-oxo-1,6-dihydropyridin-3-yl)phenyl)-2-(methylsulfonyl)isonicotinamide]	pIC50 (Table 2, 3 hours reaction): 8.51
	8.54	Cc1ccc(NC(=O)c2ccnc(C(C)(F)F)c2)cc1-c1cc(N2CCOC[C@@H]2C)c(=O)n(C)n1 [Example 664, (S)-2-(1,1-difluoroethyl)-N-(4-methyl-3-(1-methyl-5-(3-methylmorpholino)-6-oxo-1,6-dihydropyridazin-3-yl)phenyl)isonicotinamide]	
8.47		Cc1ccc(NC(=O)c2cnnc(C3(C#N)CC3)c2)cc1-c1cc(N2CCOCC2)c(=O)n(C)c1 [Example 902, 6-(1-cyanocyclopropyl)-N-(4-methyl-3-(1-methyl-5-morpholino-6-oxo-1,6-dihydropyridin-3-yl)phenyl)pyridazine-4-carboxamide]	
	8.62	Cc1ccc(NC(=O)c2cnnc(C(C)(C)C#N)c2)cc1-c1cc(N2CCOCC2)n(C)c(=O)c1 [Example 489, 6-(2-cyanopropan-2-yl)-N-(4-methyl-3-(1-methyl-6-morpholino-2-oxo-1,2-dihydropyridin-4-yl)phenyl)pyridazine-4-carboxamide]	
9.07		Cc1ccc(NC(=O)c2cncc(C(F)(F)F)c2)cc1-c1cc(N2CCOCC2)n(C)c(=O)c1 [Example 901, N-(4-methyl-3-(1-methyl-6-morpholino-2-oxo-1,2-dihydropyridin-4-yl)phenyl)-5-(trifluoromethyl)nicotinamide]	
8.74		CCOc1ncc(-c2cc(NC(=O)c3cccc(S(C)(=N)=O)c3)ccc2C)cc1N1CCOCC1 (centres unmarked) [Example 975, N-(3-(6-ethoxy-5-morpholinopyridin-3-yl)-4-methylphenyl)-3-(S-methylsulfonimidoyl)benzamide]	
9.22		Cc1ccc(NC(=O)c2ccnc(C(F)F)c2)cc1-c1cc(OC2CCOCC2)nc(N2CCOCC2)c1 [Example 1151, 2-(difluoromethyl)-N-(4-methyl-3-(2-morpholino-6-((tetrahydro-2H-pyran-4-yl)oxy)pyridin-4-yl)phenyl)isonicotinamide]	
		Cc1ccc(NC(=O)c2cccc(OC(F)(F)F)c2)cc1-c1cc(N2CCOCC2)nc(N2CCOCC2)n1 [Example 22, N-(3-(2,6-dimorpholinopyrimidin-4-yl)-4-methylphenyl)-3-(trifluoromethoxy)benzamide]	pIC50 (Table 2, 3 hours reaction): 9.15
9.33		Cc1ccc(NC(=O)c2ccnc(S(C)(=O)=O)c2)cc1-c1cnc(OC(C)C)c(N2CCOCC2)c1 [Example 950, N-(3-(6-isopropoxy-5-morpholinopyridin-3-yl)-4-methylphenyl)-2-(methylsulfonyl)isonicotinamide]	

pIC50 [1]	pIC50 [2]	Structure (SMILES)	other results
	7.94	Cc1ncc(NC(=O)c2ccnc(C(C)(C)C#N)c2)cc1-c1cc(N2CCOCC2)n2nccc2n1 [Example 791, 2-(2-cyanopropan-2-yl)-N-(6-methyl-5-(7-morpholinopyrazolo[1,5-a]pyrimidin-5-yl)pyridin-3-yl)isonicotinamide]	
8.09		Cc1ncc(NC(=O)c2cnnc(C(F)(F)F)c2)cc1-c1cc(NCCO)nc(N2CCOCC2)c1 [Example 1051, N-(2′-((2-hydroxyethyl)amino)-2-methyl-6′-morpholino-[3,4′-bipyridin]-5-yl)-6-(trifluoromethyl)pyridazine-4-carboxamide]	
8.67		Cc1ccc(NC(=O)c2ccnc(C(F)(F)F)c2)cc1-c1cc(N2CCNCC2)nc(N2CCOCC2)c1 [Example 1128, N-(4-methyl-3-(2-morpholino-6-(piperazin-1-yl)pyridin-4-yl)phenyl)-2-(trifluoromethyl)isonicotinamide]	
		Cc1ccc(NC(=O)c2cnnc(C(C)(C)C#N)c2)cc1-c1cc(N2CCOCC2)c(=O)n(C)c1 [Example 360, 6-(2-cyanopropan-2-yl)-N-(4-methyl-3-(1-methyl-5-morpholino-6-oxo-1,6-dihydropyridin-3-yl)phenyl)pyridazine-4-carboxamide]	pIC50 (Table 2, 3 hours reaction): 8.22
	8.27	Cc1ccc(NC(=O)c2ccnc(C(C)(C)C#N)c2)cc1-c1cc(N2CCOCC2)c(=O)n(C)n1 [Example 640, 2-(2-cyanopropan-2-yl)-N-(4-methyl-3-(1-methyl-5-morpholino-6-oxo-1,6-dihydropyridazin-3-yl)phenyl)isonicotinamide]	
	8.47	Cc1ccc(NC(=O)c2ccnc(C(C)(F)F)c2)cc1-c1cc(N2CCOC(C)(C)C2)c(=O)n(C)n1 [Example 667, 2-(1,1-difluoroethyl)-N-(3-(5-(2,2-dimethylmorpholino)-1-methyl-6-oxo-1,6-dihydropyridazin-3-yl)-4-methylphenyl)isonicotinamide]	
8.26		Cc1ncc(NC(=O)c2cc(C(F)(F)F)ccn2)cc1-c1cc(N2CCOCC2)c(S(C)(=O)=O)nn1 [Example 923, N-(6-methyl-5-(6-(methylsulfonyl)-5-morpholinopyridazin-3-yl)pyridin-3-yl)-4-(trifluoromethyl)picolinamide]	
	8.70	CCOc1nnc(-c2cc(NC(=O)c3cnnc(C(C)(C)C#N)c3)ccc2C)cc1N1CCOCC1 [Example 567, 6-(2-cyanopropan-2-yl)-N-(3-(6-ethoxy-5-morpholinopyridazin-3-yl)-4-methylphenyl)pyridazine-4-carboxamide]	
		Cc1ccc(NC(=O)c2cccc(C(F)(F)F)c2)cc1-c1cc(N2CCOCC2)ncn1 [Example 1, N-(4-methyl-3-(6-morpholinopyrimidin-4-yl)phenyl)-3-(trifluoromethyl)benzamide]	pIC50 (Table 2, 3 hours reaction): 9.52
8.50		CCn1cc(C(=O)Nc2ccc(C)c(-c3cc(N4CCOCC4)nc(N4CCOCC4)c3)c2)cc(C(F)(F)F)c1=O [Example 1114, N-(3-(2,6-dimorpholinopyridin-4-yl)-4-methylphenyl)-1-ethyl-6-oxo-5-(trifluoromethyl)-1,6-dihydropyridine-3-carboxamide]	
8.83		Cc1ccc(NC(=O)c2cccc(C(F)(F)F)c2)cc1-c1cc(NCC(O)C(F)(F)F)nc(N2CCOCC2)c1 (centres unmarked) [Example 1063, N-(4-methyl-3-(2-morpholino-6-((3,3,3-trifluoro-2-hydroxypropyl)amino)pyridin-4-yl)phenyl)-3-(trifluoromethyl)benzamide]	
	7.60	Cc1ccc(NC(=O)c2cccc(C(C)(C)S(C)(=O)=O)c2)cc1-c1cc(N2CCOCC2)c(=O)n(C)n1 [Example 637, N-(4-methyl-3-(1-methyl-5-morpholino-6-oxo-1,6-dihydropyridazin-3-yl)phenyl)-3-(2-(methylsulfonyl)propan-2-yl)benzamide]	
	8.85	Cc1ncc(NC(=O)c2cc(C(F)(F)F)ccn2)cc1-c1cc(N2CCOCC2)n2nccc2n1 [Example 810, N-(6-methyl-5-(7-morpholinopyrazolo[1,5-a]pyrimidin-5-yl)pyridin-3-yl)-4-(trifluoromethyl)picolinamide]	
	8.60	CCOc1nnc(-c2cc(NC(=O)c3cccc(C(F)(F)F)c3)cnc2C)cc1N1CCOC[C@@H]1C [Example 571, (S)—N-(5-(6-ethoxy-5-(3-methylmorpholino)pyridazin-3-yl)-6-methylpyridin-3-yl)-3-(trifluoromethyl)benzamide]	
		Cc1cc(C(=O)Nc2ccc(C)c(-c3cc(N4CCOCC4)c(=O)n(C)c3)c2)n(C)n1 [Example 381, 1,3-dimethyl-N-(4-methyl-3-(1-methyl-5-morpholino-6-oxo-1,6-dihydropyridin-3-yl)phenyl)-1H-pyrazole-5-carboxamide]	pIC50 (Table 2, 3 hours reaction): 7.00

Structure (SMILES)	pIC50 [1]	pIC50 [2]	other results
Cc1ccc(NC(=O)c2ccnc(C(C)(F)F)c2)cc1-c1cc(N2C3CCC2COC3)n(C)c(=O)c1 [Example 527, N-(3-(6-(3-oxa-8-azabicyclo[3.2.1]octan-8-yl)-1-methyl-2-oxo-1,2-dihydropyridin-4-yl)-4-methylphenyl)-2-(1,1-difluoroethyl)isonicotinamide]		8.25	
